PMC6979384, “Characterization of the plant homeodomain (PHD) reader family for their histone tail interactions” (Epigenetics & Chromatin, 2020)

Assays:
Assay in all cases: Histone peptide microarray
Type in all cases: binding, human
[1] = system: ING4; conditions: sheet "Array Heatmap"; GST-tagged ING4; arrays performed twice, total replicate number n = 4
Procedure, shortened: (§1)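 Steps: express and purify GST-tagged PHD reader; incubate 0.5 μM protein on a peptide microarray (293 histone peptides, single or combined PTMs) following an optimized protocol; average signal across 4 replicates.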

[2] = system: MLL5; conditions: sheet "Array Heatmap"; GST-tagged MLL5; arrays performed twice, total replicate number n = 4
Procedure, shortened: as §1

[3] = system: KDM5B (3); conditions: sheet "Array Heatmap"; GST-tagged KDM5B (3); arrays performed twice, total replicate number n = 4
Procedure, shortened: as §1

[4] = system: SP140L; conditions: sheet "Array Heatmap"; GST-tagged SP140L; arrays performed twice, total replicate number n = 4
Procedure, shortened: as §1

[5] = system: DPF2 (PPC2W2); conditions: sheet "Array Heatmap"; GST-tagged DPF2 (PPC2W2); arrays performed twice, total replicate number n = 4
Procedure, shortened: as §1

[6] = system: PHRF1 (RP); conditions: sheet "Array Heatmap"; GST-tagged PHRF1 (RP); arrays performed twice, total replicate number n = 4
Procedure, shortened: as §1

[7] = system: CHD4 (PPCC); conditions: sheet "Array Heatmap"; GST-tagged CHD4 (PPCC); arrays performed twice, total replicate number n = 4
Procedure, shortened: as §1

[8] = system: PHF23; conditions: sheet "Array Heatmap"; GST-tagged PHF23; arrays performed twice, total replicate number n = 4
Procedure, shortened: as §1

[9] = system: KDM5A (1); conditions: sheet "Array Heatmap"; GST-tagged KDM5A (1); arrays performed twice, total replicate number n = 4
Procedure, shortened: as §1

[10] = system: KDM4C (TTP); conditions: sheet "Array Heatmap"; GST-tagged KDM4C (TTP); arrays performed twice, total replicate number n = 4
Procedure, shortened: as §1

[11] = system: CHD5 (PCC); conditions: sheet "Array Heatmap"; GST-tagged CHD5 (PCC); arrays performed twice, total replicate number n = 4
Procedure, shortened: as §1

[12] = system: RAG2; conditions: sheet "Array Heatmap"; GST-tagged RAG2; arrays performed twice, total replicate number n = 4
Procedure, shortened: as §1

[13] = system: ING1; conditions: sheet "Array Heatmap"; GST-tagged ING1; arrays performed twice, total replicate number n = 4
Procedure, shortened: as §1

[14] = system: ING5; conditions: sheet "Array Heatmap"; GST-tagged ING5; arrays performed twice, total replicate number n = 4
Procedure, shortened: as §1

[15] = system: AIRE (PP); conditions: sheet "Array Heatmap"; GST-tagged AIRE (PP); arrays performed twice, total replicate number n = 4
Procedure, shortened: as §1

[16] = system: BAZ2B; conditions: sheet "Array Heatmap"; GST-tagged BAZ2B; arrays performed twice, total replicate number n = 4
Procedure, shortened: as §1

[17] = system: TAF3; conditions: sheet "Array Heatmap"; GST-tagged TAF3; arrays performed twice, total replicate number n = 4
Procedure, shortened: as §1

[18] = system: PHF2; conditions: sheet "Array Heatmap"; GST-tagged PHF2; arrays performed twice, total replicate number n = 4
Procedure, shortened: as §1

[19] = system: DIDO1; conditions: sheet "Array Heatmap"; GST-tagged DIDO1; arrays performed twice, total replicate number n = 4
Procedure, shortened: as §1

[20] = system: KDM7A; conditions: sheet "Array Heatmap"; GST-tagged KDM7A; arrays performed twice, total replicate number n = 4
Procedure, shortened: as §1

[21] = system: ING3; conditions: sheet "Array Heatmap"; GST-tagged ING3; arrays performed twice, total replicate number n = 4
Procedure, shortened: as §1

[22] = system: BPTF (PB); conditions: sheet "Array Heatmap"; GST-tagged BPTF (PB); arrays performed twice, total replicate number n = 4
Procedure, shortened: as §1

[23] = system: PHF21A; conditions: sheet "Array Heatmap"; GST-tagged PHF21A; arrays performed twice, total replicate number n = 4
Procedure, shortened: as §1

[24] = system: TRIM66 (PB); conditions: sheet "Array Heatmap"; GST-tagged TRIM66 (PB); arrays performed twice, total replicate number n = 4
Procedure, shortened: as §1

[25] = system: KDM5A (3); conditions: sheet "Array Heatmap"; GST-tagged KDM5A (3); arrays performed twice, total replicate number n = 4
Procedure, shortened: as §1

[26] = system: ING2; conditions: sheet "Array Heatmap"; GST-tagged ING2; arrays performed twice, total replicate number n = 4
Procedure, shortened: as §1

[27] = system: KDM5B (1); conditions: sheet "Array Heatmap"; GST-tagged KDM5B (1); arrays performed twice, total replicate number n = 4
Procedure, shortened: as §1

[28] = system: PHF13; conditions: sheet "Array Heatmap"; GST-tagged PHF13; arrays performed twice, total replicate number n = 4
Procedure, shortened: as §1

[29] = system: MORC3 (CW); conditions: sheet "Array Heatmap"; GST-tagged MORC3 (CW); arrays performed twice, total replicate number n = 4
Procedure, shortened: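 GST-PHD reader, 0.5 μM, probed on 293-peptide histone array (single/combinatorial PTMs); optimized array protocol; signal = mean ± SD, n = 4.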

[30] = system: CHD5 (PPCC); conditions: sheet "Array Heatmap"; GST-tagged CHD5 (PPCC); arrays performed twice, total replicate number n = 4
Procedure, shortened: as §1

[31] = system: PHF8; conditions: sheet "Array Heatmap"; GST-tagged PHF8; arrays performed twice, total replicate number n = 4
Procedure, shortened: as §1

Q: How did the “Array Heatmap signal, ING4” value [1] turn out when H3K4ac + K9me2 + K14ac + K18ac: H3 1-20 was run?
A: 0.4857

Q: What about the “Array Heatmap signal, MLL5” value [2] of the same substance?
A: 0.5581

Q: What about the “Array Heatmap signal, KDM5B (3)” value [3] of the same substance?
A: 0.5157

Q: What about the “Array Heatmap signal, SP140L” value [4] of the same substance?
A: 0.3786

Q: And the “Array Heatmap signal, DPF2 (PPC2W2)” value [5]?
A: 0.7053

Q: What about the “Array Heatmap signal, PHRF1 (RP)” value [6] of the same substance?
A: 0.5426

Q: What about the “Array Heatmap signal, CHD4 (PPCC)” value [7] of the same substance?
A: 0.5924

Q: What about the “Array Heatmap signal, PHF23” value [8] of the same substance?
A: 0.5641

Q: And the “Array Heatmap signal, KDM5A (1)” value [9]?
A: 0.4994

Q: And the “Array Heatmap signal, KDM4C (TTP)” value [10]?
A: 0.5332

Q: What about the “Array Heatmap signal, CHD5 (PCC)” value [11] of the same substance?
A: 0.8289

Q: And the “Array Heatmap signal, RAG2” value [12]?
A: 0.2604

Q: What about the “Array Heatmap signal, ING1” value [13] of the same substance?
A: 0.5602

Q: And the “Array Heatmap signal, ING5” value [14]?
A: 0.3863

Q: And the “Array Heatmap signal, AIRE (PP)” value [15]?
A: 0.5959

Q: And the “Array Heatmap signal, BAZ2B” value [16]?
A: 0.5255

Q: And the “Array Heatmap signal, TAF3” value [17]?
A: 0.2754

Q: What about the “Array Heatmap signal, PHF2” value [18] of the same substance?
A: 0.5092

Q: What about the “Array Heatmap signal, DIDO1” value [19] of the same substance?
A: 0.6996

Q: And the “Array Heatmap signal, KDM7A” value [20]?
A: 0.3693

Q: And the “Array Heatmap signal, ING3” value [21]?
A: 0.5023

Q: What about the “Array Heatmap signal, BPTF (PB)” value [22] of the same substance?
A: 0.3687

Q: What about the “Array Heatmap signal, PHF21A” value [23] of the same substance?
A: 0.517

Q: And the “Array Heatmap signal, TRIM66 (PB)” value [24]?
A: 0.6234

Q: And the “Array Heatmap signal, KDM5A (3)” value [25]?
A: 0.4792

Q: And the “Array Heatmap signal, ING2” value [26]?
A: 0.6022

Q: And the “Array Heatmap signal, KDM5B (1)” value [27]?
A: 0.6474

Q: And the “Array Heatmap signal, PHF13” value [28]?
A: 0.6376

Q: And the “Array Heatmap signal, MORC3 (CW)” value [29]?
A: 0.4166

Q: And the “Array Heatmap signal, CHD5 (PPCC)” value [30]?
A: 0.5961

Q: What about the “Array Heatmap signal, PHF8” value [31] of the same substance?
A: 0.3959
